From patent US7351692B2, “Method and composition for potentiating the antipyretic action of a nonopioid analgesic” (The Board of Trustees of the University of Illinois, priority 2002, dated 2008)
Non-standard residues stand in square brackets, D forms with d. Residues, ends and D or L forms follow the SMILES beside them.

What was measured:
[1] = Body weight of mice before drug and at end of experiment; assay type: in vivo; details: before drug vs 7 hours after acetaminophen, acetaminophen 300 mg/kg s.c., BQ123 3 μg i.c.v.
Protocol: (§1) Male Swiss-Webster mice weighing 25 to 30 grams (Harlan, Indianapolis, Ind.) were housed four per cage in a room having a controlled ambient temperature (23±1° C.), humidity (50±10%), and twelve-hour light/dark cycle (6:00 a.m. to 6:00 p.m.). Food and water were available ad libitum. The experiments were-performed after the mice were acclimated to this environment for at least four days.
For i.c.v. administration of the endothelin antagonist BQ123, a mouse was grasped firmly by the loose skin behind the head and the skin was pulled taut. The site of injection was 2 mm from either side of the midline drawn through the anterior base of the ears. A 27 gauge sterile hypodermic needle attached to a 10 μL sterile Hamilton syringe was inserted perpendicularly through the skull into the brain, and vehicle (sterile saline) or BQ123 was delivered to the ventricle of the mouse brain (see T. J. Haley et al., Brit. J. Pharmacol., 12(12), (1957)). BQ123 (3 μg) or vehicle was administered i.c.v. and volume of drug injection was 5 μL. […]
The body weight of all mice was measured, and no change in body weight between various groups of mice was observed (FIG. 2). Body weight was measured before administration of any drug and at the end of the experiment (i.e., 7 hours after the administration of acetaminophen).

[2] = Measurement of body temperature (colonic temperature, telethermometer); assay type: in vivo; details: for change in body temperature, drug alone: acetaminophen 300 mg/kg s.c. or BQ123 3 μg i.c.v., over 360 minutes
Protocol: as §1
(§2) For i.c.v. administration of the endothelin antagonist BQ123, a mouse was grasped firmly by the loose skin behind the head and the skin was pulled taut. The site of injection was 2 mm from either side of the midline drawn through the anterior base of the ears. A 27 gauge sterile hypodermic needle attached to a 10 μL sterile Hamilton syringe was inserted perpendicularly through the skull into the brain, and vehicle (sterile saline) or BQ123 was delivered to the ventricle of the mouse brain (see T. J. Haley et al., Brit. J. Pharmacol., 12(12), (1957)). BQ123 (3 μg) or vehicle was administered i.c.v. and volume of drug injection was 5 μL. Vehicle or BQ123 pretreatment was performed 30 minutes prior to administration of acetaminophen (300 mg/kg s.c.).
(§3) The mice were divided into the following four groups (N=5 in each group): group I (P+V) received vehicle (V) (saline 5 μl, i.c.v.) and placebo (P) (vehicle 100 μl/kg, s.c.); group 2 (P+BQ) received BQ123 (BQ) (3 μg. i.c.v. in a volume of 5 μl of saline) and placebo (P) (vehicle 100 μl/kg, s.c.); group 3 (A+V) received vehicle (V) (saline 5 μl, i.c.v.) and acetaminophen (A) (300 mg/kg, s.c. in a volume of 100 μl/kg); and group 4 (A+BQ) received BQ123 (BQ) (3 μg, i.c.v. in a volume of 5 μl) and acetaminophen (A) (300 mg/kg, s.c. in a volume of 100 μl/kg). Vehicle or BQ123 pretreatment was performed 30 minutes prior to administration of acetaminophen (FIG. 1).
The change in body temperature in response to acetaminophen (300 mg/kg) was determined (Bhargava, 1997). The colonic temperature of each mouse was recorded before and at various times after the injection of acetaminophen over a period of 360 minutes using a telethermometer. Body temperature data was expressed as mean±SEM.

[3] = Measurement of tail-flick latency (thermal stimulation); assay type: in vivo; details: mice; for effect on tail flick latency (analgesia), drug alone: acetaminophen 300 mg/kg s.c. or BQ123 3 μg i.c.v.
Protocol: as §1, §2, §3
An analgesic response was determined by the tail flick method (C. Advocat et al., Brain Ref., 55(2), pp. 251-258 (1991); H. N. Bhargava, General Pharmacology, 28(1), pp. 61-64 (1997)). The tail flick latencies to thermal stimulation (focused light) were determined before and 30, 60, 90, 120, 180, 210, 240, 270, 300, and 360 minutes after injection of acetaminophen. The basal tail flick latency was about 2 seconds. A thermal stimulation cutoff time of 10 seconds was used to prevent damage to the tail of the animal. The analgesic response in each mouse was expressed as mean±SEM.

[4] = biological target: T1, ETA receptor (Rattus norvegicus, UniProt P26684); details: cited from earlier work
T1 construct: host or cells: whole animal, central (intracerebroventricular) administration
T1 sequence (P26684 21-426): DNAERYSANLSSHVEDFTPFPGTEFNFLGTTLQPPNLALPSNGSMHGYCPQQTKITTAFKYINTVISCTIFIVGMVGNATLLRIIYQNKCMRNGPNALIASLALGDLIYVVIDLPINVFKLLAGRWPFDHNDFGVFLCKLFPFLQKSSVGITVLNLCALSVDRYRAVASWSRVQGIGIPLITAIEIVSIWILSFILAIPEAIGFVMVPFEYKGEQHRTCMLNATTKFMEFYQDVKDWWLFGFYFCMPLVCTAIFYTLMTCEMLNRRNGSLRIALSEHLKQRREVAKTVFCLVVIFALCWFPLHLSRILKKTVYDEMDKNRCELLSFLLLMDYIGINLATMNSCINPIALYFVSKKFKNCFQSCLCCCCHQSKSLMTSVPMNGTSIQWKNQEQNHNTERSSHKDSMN

[5] = acetaminophen 3900 mg/d; afebrile patients with acute stroke; cited from earlier work
[6] = 4000 mg acetaminophen daily (n=20); placebo group 36.4%; p=0.014; cited from earlier work
[7] = daily dose of 6000 mg acetaminophen, suppositories, five days; cited from earlier work
[8] = biological target: COX-1 (Homo sapiens, UniProt P23219); details: in vitro; cited from earlier work
[9] = biological target: T2, COX-2 (Homo sapiens, UniProt P35354); details: in vitro; cited from earlier work
T2 sequence (P35354 18-604): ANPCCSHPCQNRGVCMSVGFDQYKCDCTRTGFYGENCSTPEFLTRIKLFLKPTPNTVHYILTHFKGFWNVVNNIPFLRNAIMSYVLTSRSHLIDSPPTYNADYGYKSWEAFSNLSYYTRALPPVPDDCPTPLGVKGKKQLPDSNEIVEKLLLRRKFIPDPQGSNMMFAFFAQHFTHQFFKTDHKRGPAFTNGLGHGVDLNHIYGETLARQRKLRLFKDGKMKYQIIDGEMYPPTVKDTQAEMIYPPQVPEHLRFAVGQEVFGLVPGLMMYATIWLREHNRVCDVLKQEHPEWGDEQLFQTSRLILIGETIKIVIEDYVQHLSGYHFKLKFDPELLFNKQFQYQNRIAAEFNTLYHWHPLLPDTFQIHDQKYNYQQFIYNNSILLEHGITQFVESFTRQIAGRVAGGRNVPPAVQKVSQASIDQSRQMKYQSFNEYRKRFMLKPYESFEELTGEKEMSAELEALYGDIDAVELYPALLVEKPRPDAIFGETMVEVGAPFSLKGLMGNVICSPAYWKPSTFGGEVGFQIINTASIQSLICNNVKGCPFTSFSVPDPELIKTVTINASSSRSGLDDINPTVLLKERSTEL

[10] = test system: prostaglandin synthesis; details: in vivo; cited from earlier work
[11] = BQ123 3 μg i.c.v. 30 minutes prior to acetaminophen 300 mg/kg s.c.

COX-1, sequence (P23219 24-599): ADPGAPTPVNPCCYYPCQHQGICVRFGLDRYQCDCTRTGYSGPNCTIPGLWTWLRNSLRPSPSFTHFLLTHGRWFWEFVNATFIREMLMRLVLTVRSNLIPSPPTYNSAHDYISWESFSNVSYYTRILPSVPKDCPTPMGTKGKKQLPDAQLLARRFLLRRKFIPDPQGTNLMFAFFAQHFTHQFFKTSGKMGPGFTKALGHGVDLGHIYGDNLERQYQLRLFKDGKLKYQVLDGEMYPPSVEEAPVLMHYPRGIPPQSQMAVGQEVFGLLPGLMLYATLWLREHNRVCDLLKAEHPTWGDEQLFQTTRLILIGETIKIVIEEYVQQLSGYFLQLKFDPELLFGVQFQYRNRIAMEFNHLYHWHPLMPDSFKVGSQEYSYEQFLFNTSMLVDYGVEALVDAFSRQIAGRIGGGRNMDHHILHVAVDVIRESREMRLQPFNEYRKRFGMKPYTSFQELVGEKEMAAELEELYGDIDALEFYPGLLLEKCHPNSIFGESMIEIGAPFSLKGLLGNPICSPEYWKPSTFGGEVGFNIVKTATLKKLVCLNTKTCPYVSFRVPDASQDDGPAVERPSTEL

Row | Compound | acute effect on body weight [1] | duration of hypothermic effect of acetaminophen in BQ123 pretreated mice [2, 11] | effect of BQ123 on hypothermic effect of acetaminophen ([2]; mice, BQ123 3 μg i.c.v. 30 minutes prior to acetaminophen 300 mg/kg s.c.) | change in body temperature, drug alone ([2]; mice) | effect of BQ123 on analgesic effect of acetaminophen [3, 11] | effect on tail flick latency (analgesia), drug alone ([3]; control about 2 seconds) | effect on BP and HR per se ([4]; administered in the lateral cerebral ventricle) | effect on clonidine induced hypotension and bradycardia ([4]; pretreatment) | duration of hypothermia after acetaminophen ([2]; mice, acetaminophen 300 mg/kg s.c., vehicle pretreatment) | tail flick latency reached ([3]; acetaminophen 300 mg/kg s.c., cutoff time 10 seconds, control about 2 seconds) | duration of significant increase in tail flick latencies ([3]; after acetaminophen 300 mg/kg s.c.) | core body temperature (CBT) [5] | patients with fever of greater than 37.5° C. [6] | body temperature shortly after ischemic stroke [7] | inhibition of COX-1 [8] | inhibition of COX-2 [9] | reduction of prostaglandin synthesis [10]
1 | CC(C)C[C@@H]1NC(=O)[C@@H](C(C)C)NC(=O)[C@@H]2CCCN2C(=O)[C@@H](CC(=O)O)NC(=O)[C@@H](Cc2c[nH]c3ccccc23)NC1=O [BQ123, cyclo (-D-Trp-D-Asp-Pro-D-Val-Leu-)] (cyclo(L[dW][dD]P[dV])) | neither acetaminophen nor BQ123 produced any acute effect on body weight | more than six | significantly potentiated | did not produce any significant change in body temperature | not affected | did not produce any significant effect on tail flick latency | – | – | – | – | – | – | – | – | – | – | –
2 | Cc1noc(NS(=O)(=O)c2cccc3c(N(C)C)cccc23)c1C [BMS-182874] | – | – | – | – | – | – | did not affect BP and HR per se | significantly blocked | – | – | – | – | – | – | – | – | –
3 | CC(=O)Nc1ccc(O)cc1 [acetaminophen] | – | – | – | produced a significant hypothermia | – | produced significant analgesia | – | – | about three | more than 10 seconds | three | small reduction in CBT | 5.0% | small, but potentially beneficial, decrease in body temperature | weakly | weakly | markedly
